Like-named read-outs stand apart in the source and are kept apart here.
How the values were obtained:
[1] = molecular target: T1, PAD4 (Homo sapiens, UniProt Q9UM07); experiment: PAD4 inhibition/inactivation, residual activity measured with BAEE; format: biochemical
[2] = molecular target: T1, PAD4; experiment: fluopol-ABPP HTS
[3] = molecular target: T1, PAD4; experiment: gel-based ABPP secondary screen
[4] = molecular target: T2, PAD2 (Homo sapiens, UniProt Q9Y2J8); conditions: PAD4 over PAD2, relative values of kinact/KI
[5] = molecular target: T2, PAD2; experiment: biochemical
[6] = molecular target: T3, PAD3 (Homo sapiens, UniProt Q9ULW8); experiment: biochemical
T3 sequence (Q9ULW8 1-664): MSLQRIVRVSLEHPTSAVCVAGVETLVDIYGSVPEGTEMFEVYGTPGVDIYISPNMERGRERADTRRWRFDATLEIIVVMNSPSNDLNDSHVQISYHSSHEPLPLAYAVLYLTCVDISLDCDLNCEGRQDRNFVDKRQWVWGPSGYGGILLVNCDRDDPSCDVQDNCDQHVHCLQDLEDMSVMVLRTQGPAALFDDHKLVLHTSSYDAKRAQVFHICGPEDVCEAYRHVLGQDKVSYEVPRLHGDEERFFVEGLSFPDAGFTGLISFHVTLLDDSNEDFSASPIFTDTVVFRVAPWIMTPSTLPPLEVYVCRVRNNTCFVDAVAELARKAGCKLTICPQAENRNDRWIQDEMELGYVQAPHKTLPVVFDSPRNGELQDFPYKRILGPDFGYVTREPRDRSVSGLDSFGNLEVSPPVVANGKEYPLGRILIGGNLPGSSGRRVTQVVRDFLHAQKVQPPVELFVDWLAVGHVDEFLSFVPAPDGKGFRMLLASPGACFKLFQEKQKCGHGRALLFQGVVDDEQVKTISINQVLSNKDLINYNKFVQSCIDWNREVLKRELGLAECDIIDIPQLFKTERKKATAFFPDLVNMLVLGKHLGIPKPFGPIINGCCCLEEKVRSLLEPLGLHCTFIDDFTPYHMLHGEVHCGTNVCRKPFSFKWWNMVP

[7] = molecular target: T4, PAD1 (Homo sapiens, UniProt Q9ULC6); experiment: PAD1 inhibition/inactivation, residual activity measured with BAEE
T4 sequence (Q9ULC6 1-663): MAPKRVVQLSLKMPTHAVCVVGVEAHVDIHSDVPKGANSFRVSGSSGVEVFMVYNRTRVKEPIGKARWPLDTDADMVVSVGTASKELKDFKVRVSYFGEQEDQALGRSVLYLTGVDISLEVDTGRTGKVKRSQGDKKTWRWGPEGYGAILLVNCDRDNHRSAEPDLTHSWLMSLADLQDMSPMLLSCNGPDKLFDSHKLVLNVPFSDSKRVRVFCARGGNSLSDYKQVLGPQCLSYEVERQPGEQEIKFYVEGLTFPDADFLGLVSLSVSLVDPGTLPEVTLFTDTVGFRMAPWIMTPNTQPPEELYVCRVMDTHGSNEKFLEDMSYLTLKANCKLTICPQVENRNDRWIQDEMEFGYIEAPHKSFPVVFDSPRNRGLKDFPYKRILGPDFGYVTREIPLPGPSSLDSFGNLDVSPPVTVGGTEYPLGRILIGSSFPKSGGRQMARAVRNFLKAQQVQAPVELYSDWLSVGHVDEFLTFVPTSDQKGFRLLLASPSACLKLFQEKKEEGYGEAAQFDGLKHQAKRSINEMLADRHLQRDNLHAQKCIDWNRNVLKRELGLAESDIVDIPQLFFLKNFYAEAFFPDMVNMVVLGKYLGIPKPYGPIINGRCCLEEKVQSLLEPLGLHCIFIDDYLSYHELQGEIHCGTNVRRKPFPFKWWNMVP

[8] = test system: HL-60 granulocytes; experiment: histone H3 citrullination Western blot in HL-60 granulocytes; format: cell-based; conditions: anti-citrulline histone H3 Western blot, 1, 10, or 100 nM, dose dependent
[9] = test system: MCF-7 cells; experiment: histone H3 citrullination Western blot in MCF-7 cells; format: cell-based; conditions: MCF7 cells; anti-citrulline histone H3 Western blot; 1, 10, or 100 nM, dose dependent

T1 sequence (Q9UM07 whole entry): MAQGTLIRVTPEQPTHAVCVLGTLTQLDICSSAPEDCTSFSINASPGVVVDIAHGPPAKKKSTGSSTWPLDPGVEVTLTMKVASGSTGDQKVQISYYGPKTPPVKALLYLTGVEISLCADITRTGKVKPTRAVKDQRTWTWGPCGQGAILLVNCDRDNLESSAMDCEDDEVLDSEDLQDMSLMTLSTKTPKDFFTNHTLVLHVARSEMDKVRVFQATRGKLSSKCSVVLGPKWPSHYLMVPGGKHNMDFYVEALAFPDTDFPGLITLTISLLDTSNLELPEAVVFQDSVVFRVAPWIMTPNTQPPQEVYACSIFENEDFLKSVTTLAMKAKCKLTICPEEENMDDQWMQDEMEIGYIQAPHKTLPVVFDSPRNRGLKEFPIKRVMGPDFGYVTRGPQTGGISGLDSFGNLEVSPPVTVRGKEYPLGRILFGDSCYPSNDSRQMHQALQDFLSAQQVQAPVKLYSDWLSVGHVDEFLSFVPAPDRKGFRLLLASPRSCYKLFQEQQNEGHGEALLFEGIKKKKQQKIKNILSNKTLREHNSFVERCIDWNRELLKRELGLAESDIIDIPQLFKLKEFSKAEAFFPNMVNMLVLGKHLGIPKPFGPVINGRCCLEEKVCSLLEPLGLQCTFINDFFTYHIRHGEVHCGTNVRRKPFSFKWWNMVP
T2 sequence (Q9Y2J8 whole entry): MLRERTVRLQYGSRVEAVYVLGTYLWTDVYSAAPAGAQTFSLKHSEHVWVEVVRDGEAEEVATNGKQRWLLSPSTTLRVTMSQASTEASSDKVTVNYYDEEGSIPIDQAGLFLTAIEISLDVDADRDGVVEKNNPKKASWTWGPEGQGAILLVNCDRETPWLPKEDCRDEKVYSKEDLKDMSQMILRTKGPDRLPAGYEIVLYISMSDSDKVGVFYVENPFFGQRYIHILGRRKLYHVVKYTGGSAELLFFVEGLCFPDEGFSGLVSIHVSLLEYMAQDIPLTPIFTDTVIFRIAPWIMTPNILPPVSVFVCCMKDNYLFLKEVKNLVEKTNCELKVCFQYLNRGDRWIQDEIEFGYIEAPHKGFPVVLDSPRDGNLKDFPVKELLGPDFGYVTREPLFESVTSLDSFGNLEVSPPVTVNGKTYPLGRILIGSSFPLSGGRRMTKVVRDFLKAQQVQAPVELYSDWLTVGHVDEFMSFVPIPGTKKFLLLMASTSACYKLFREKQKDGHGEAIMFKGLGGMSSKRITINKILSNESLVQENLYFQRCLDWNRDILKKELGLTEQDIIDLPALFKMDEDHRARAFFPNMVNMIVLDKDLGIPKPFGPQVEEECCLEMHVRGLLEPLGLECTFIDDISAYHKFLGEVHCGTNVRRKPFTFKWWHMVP

| Compound | IC50 ([1]; read-out: IC50 for PAD4, Table 1, hits of the HTS) [µM] | % Inhibition (library screen) ([2]; 5 μM compound final, 2 μM PAD4, 75 nM RFA, 300 min) [%] | % Inhibition (Gel based ABPP) ([3]; 10 μM final, inhibition of RFA labeling of PAD4) [%] | IC50 [1] [µM] | Ki [1] [µM] | PAD4 activity recovered after dialysis (reversibility) ([1]; incubated with PAD4 for 30 min, dialyzed overnight (~20 h)) | Fold selectivity [4] [fold] | Ki [5] [µM] | Ki [6] [µM] | Ki [7] [µM] | concentration that reduced levels of citrullinated histone H3 [8] [nM] | inhibition at 5 µM ([2]; read-out: % Inhibition (library screen)) [%] | concentration that reduced levels of citrullinated histone H3 [9] [nM] | inhibition at 10 µM ([3]; read-out: % Inhibition (Gel based ABPP)) [%] |
| --- | --- | --- | --- | --- | --- | --- | --- | --- | --- | --- | --- | --- | --- | --- |
| Cc1ccc(S(=O)(=O)N[C@@H](Cc2ccccc2)C(=O)CCl)cc1 [NIH5, tosyl phenylalanyl chloromethyl ketone] | 13 ± 2 | 39.7 | 12.9 |  |  |  |  |  |  |  |  |  |  |  |
| COC1=C(N)C(=O)c2nc(-c3nc(C(=O)O)c(C)c(-c4ccc(OC)c(OC)c4O)c3N)ccc2C1=O [NIH6, streptonigrin] |  |  |  | 1.87 ± 0.24 | 8.5 ± 4.3 | no PAD4 activity was recovered | 37 | 17 ± 5.8 | 49 ± 34 | 11 ± 7 | ≤ 1 | 92.5 | ≤ 1 | 93.9 |
